Measured values from US20220363665A1, “QUINOLINE COMPOUNDS FOR THE TREATMENT OF AUTOIMMUNE DISEASE” (Hoffmann-La Roche Inc., priority 2019, published 2022).

Experiments:
human TLR8 = target: T1, human TLR8 (Homo sapiens, UniProt Q9NR97); assay: HEK293-Blue-hTLR-8 cells assay (SEAP reporter, R848 stimulation); assay type: cell-based; conditions: HEK293-Blue-hTLR8 cells, R848, 20 hrs
T1 construct: host or cells: HEK293 (HEK-Blue hTLR8)
T1 sequence (Q9NR97 27-1041): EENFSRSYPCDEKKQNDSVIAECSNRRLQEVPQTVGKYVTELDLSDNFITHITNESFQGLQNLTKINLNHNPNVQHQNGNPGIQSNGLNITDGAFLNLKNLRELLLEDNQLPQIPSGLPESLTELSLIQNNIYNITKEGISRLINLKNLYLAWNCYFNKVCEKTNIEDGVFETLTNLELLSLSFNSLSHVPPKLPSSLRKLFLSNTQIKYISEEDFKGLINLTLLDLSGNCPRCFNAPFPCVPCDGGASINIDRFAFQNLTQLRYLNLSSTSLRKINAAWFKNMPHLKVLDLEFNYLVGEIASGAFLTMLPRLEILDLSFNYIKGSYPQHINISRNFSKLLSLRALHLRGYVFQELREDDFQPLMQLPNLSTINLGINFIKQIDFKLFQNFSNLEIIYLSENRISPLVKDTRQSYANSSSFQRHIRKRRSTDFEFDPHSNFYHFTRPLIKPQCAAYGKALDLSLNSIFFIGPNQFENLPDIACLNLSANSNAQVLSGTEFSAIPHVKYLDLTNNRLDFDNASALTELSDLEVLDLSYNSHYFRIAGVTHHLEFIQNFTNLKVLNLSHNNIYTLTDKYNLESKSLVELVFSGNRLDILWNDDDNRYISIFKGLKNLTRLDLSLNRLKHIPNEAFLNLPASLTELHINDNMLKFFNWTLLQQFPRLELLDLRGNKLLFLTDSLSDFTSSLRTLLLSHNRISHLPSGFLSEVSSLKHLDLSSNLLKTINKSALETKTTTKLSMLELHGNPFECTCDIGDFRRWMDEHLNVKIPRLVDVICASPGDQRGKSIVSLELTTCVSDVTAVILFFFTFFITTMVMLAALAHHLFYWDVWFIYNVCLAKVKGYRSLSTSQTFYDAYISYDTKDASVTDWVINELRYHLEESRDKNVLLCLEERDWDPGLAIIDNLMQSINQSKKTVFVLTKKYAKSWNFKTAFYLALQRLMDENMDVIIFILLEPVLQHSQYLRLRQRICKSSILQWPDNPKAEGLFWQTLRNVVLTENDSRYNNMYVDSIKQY
Experimental: The following tests were carried out in order to determine the activity of the compounds of formula (I) in HEK293-Blue-hTLR-7/8/9 cells assay.
HEK293-Blue-hTLR-8 Cells Assay:
A stable HEK293-Blue-hTLR-8 cell line was purchased from InvivoGen (Cat. #: hkb-htlr8, San Diego, Calif., USA). These cells were originally designed for studying the stimulation of human TLR8 by monitoring the activation of NF-κB. A SEAP (secreted embryonic alkaline phosphatase) reporter gene was placed under the control of the IFN-β minimal promoter fused to five NF-κB and AP-1-binding sites. The SEAP was induced by activating NF-κB and AP-1 via stimulating HEK-Blue hTLR8 cells with TLR8 ligands. Therefore the reporter expression was declined by TLR8 antagonist under the stimulation of a ligand, such as R848, for incubation of 20 hrs. The cell culture supernatant SEAP reporter activity was determined using QUANTI-Blue™ kit (Cat #. rep-qbl, Invivogen, San Diego, Calif., USA) at a wavelength of 640 nm, a detection medium that turns purple or blue in the presence of alkaline phosphatase.
HEK293-Blue-hTLR8 cells were incubated at a density of 250,000˜450,000 cells/mL in a volume of 170 μL in a 96-well plate in Dulbecco's Modified Eagle's medium (DMEM) containing 4.5 g/L glucose, 50 U/mL penicillin, […], […], 2 mM L-glutamine, 10% (v/v) heat-inactivated fetal bovine serum with addition of 20 μL test compound in a serial dilution in the presence of final DMSO at 1% and 10 μL of 60 μM R848 in above DMEM, perform incubation under 37° C. in a CO2 incubator for 20 hrs. Then 20 μL of the supernatant from each well was incubated with 180 μL Quanti-blue substrate solution at 37° C. for 2 hrs and the absorbance was read at 620˜655 nm using a spectrophotometer. The signalling pathway that TLR8 activation leads to downstream NF-KB activation has been widely accepted, and therefore similar reporter assay was modified for evaluating TLR8 antagonist.

CYP3A4 = target: T2, CYP3A4 (Homo sapiens, UniProt P08684); assay: CYP inhibition assay in human liver microsome, CYP3A4; assay type: in vitro ADME; conditions: HLM, midazolam substrate; for inhibition at 5 min, 10 µM: human, liver microsomes, probe midazolam, read-out: CYP inhibition % @10 uM (3A4)
T2 construct: tissue BD-Gentest 452117; host or cells: human liver microsomes
T2 sequence (P08684 whole entry): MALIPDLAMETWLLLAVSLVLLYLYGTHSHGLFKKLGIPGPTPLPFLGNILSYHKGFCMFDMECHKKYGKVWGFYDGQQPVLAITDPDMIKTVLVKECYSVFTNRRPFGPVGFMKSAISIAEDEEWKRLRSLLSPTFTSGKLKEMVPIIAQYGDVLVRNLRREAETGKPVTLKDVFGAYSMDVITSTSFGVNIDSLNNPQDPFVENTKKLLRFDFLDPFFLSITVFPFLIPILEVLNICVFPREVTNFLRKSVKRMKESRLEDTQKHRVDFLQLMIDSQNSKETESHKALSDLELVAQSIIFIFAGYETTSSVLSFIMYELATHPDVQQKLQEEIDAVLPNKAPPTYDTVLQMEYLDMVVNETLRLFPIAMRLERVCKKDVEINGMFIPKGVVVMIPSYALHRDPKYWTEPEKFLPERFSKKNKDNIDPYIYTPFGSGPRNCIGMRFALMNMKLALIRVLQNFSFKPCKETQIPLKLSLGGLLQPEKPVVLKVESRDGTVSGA
Experimental: This is a high throughput screening assay used for assessment of reversible inhibition of CYP2C9, CYP2D6, and CYP3A4 activity of test compounds in human liver microsome (HLM) in early discovery stage.
10 mM DMSO stock solutions of test compounds were diluted in DMSO to generate 2 mM intermediate stock solution. 250 nL of intermediate stock solution were transferred in duplicate into 3 separate 384 well microtitre plates (assay-ready plates). A mixture of HLM and each substrate was made up. 45 μL of HLM substrate mix was then transferred to each well of an assay ready plate and mixed. The negative (solvent) and positive controls (standard inhibitor for each CYP) were included in each assay ready plate. The assay ready plate was warmed to 37° C. in an incubator over 10 minutes. 5 μL pre-warmed NADPH regenerating system was added to each incubation well to start the reaction. Final incubation volume was 50 μL. The assay plate then was placed back in the 37° C. incubator. After 5 minutes incubation (10 minutes for CYP2D6), incubates were quenched by addition of 50 μL quench reagent containing internal standards (400 ng/mL 13C6-4′-OH-Diclofenac, 20 ng/mL D3-Dextrorphan and 20 ng/mL D4-1′OH-Midazolam in acetonitrile). The supernatants were collected for RapidFire/MS/MS analysis.
RapidFire online solid phase extraction/sample injection system (Agilent) coupled with API4000 triple quadrupole mass spectrometer (AB Sciex) were used for sample analysis. The mobile phase composed of acetonitrile and water supplemented with 0.1% formic acid. A C4 solid phase extraction cartridge is used for sample separation. MS detection is achieved in positive ion MRM mode.
Peak areas for substrate, metabolite and internal standard are determined using the
RapidFire integrator software (version 3.6.12009.12296). Peak area ratios (PAR) of metabolite and internal standard (stable-labelled metabolite) are then calculated. The measurement window for each experiment is then defined:
PAR (0% activity)=average PAR for all incubations containing concentrated inhibitor;
Par (100% activity)=average PAR for all incubations containing no inhibitor (DMSO controls);
% Activity (test inhibitor) =[PAR(test inhibitor)-PAR(0% activity)][PAR(100% activity)-PAR(0% activity)];
% Inhibition (test inhibitor)=100-% Activity (test inhibitor).
Percentage inhibition data are then reported, in duplicate, for the 3 CYP enzymes.

Question: Which IC50 (human TLR8) does the source give for `C[C@@H]1CN(c2ccc(C(F)(F)F)c3ncccc23)C[C@H](C(=O)N[C@@H]2CNC[C@@H]2F)O1` (single isomer, unassigned) [Example 2A] here?
Answer: < 3 nM

Question: What about the inhibition at 5 min, 10 µM (CYP3A4) of the same compound?
Answer: 5%

Question: What does the source list for `C[C@@H]1CN(c2ccc(C(F)(F)F)c3ncccc23)C[C@H](C(=O)NC2CC3CCCC(C2)N3)O1` (single isomer, unassigned) [Example 34B]?
Answer: IC50 (human TLR8): 6 nM; inhibition at 5 min, 10 µM (CYP3A4): -28%

Question: For `C[C@@H]1CN(c2ccc(C(F)(F)F)c3ncccc23)C[C@H](C(=O)NC2CC3CNCC32)O1` (single isomer, unassigned) [Example 49A], which IC50 (human TLR8) is on record?
Answer: 22 nM

Question: What about the “CYP inhibition % @10 uM (3A4)” value (CYP3A4) of the same compound?
Answer: −25%

Question: `C[C@@H]1CN(c2ccc(C(F)(F)F)c3ncccc23)C[C@H](C(=O)NC2CC3CNCC32)O1` (single isomer, unassigned) [Example 49B] was tested. Which IC50 (human TLR8) did it give?
Answer: 9 nM

Question: What about the “CYP inhibition % @10 uM (3A4)” value (CYP3A4) of the same compound?
Answer: −36%

Question: `C[C@@H]1CN(c2ccc(C(F)(F)F)c3ncccc23)C[C@H](C(=O)NCC2CN(C)CCO2)O1` (stereo partly drawn) [Example 3, (2R,6R)-6-methyl-N-[(4-methylmorpholin-2-yl)methyl]-4-[8-(trifluoromethyl)-5-quinolyl]morpholine-2-carboxamide] was tested. Which IC50 (human TLR8) did it give?
Answer: < 3 nM

Question: What about the inhibition at 5 min, 10 µM (CYP3A4) of the same compound?
Answer: -11%

Question: With `C[C@@H]1CN(c2ccc(C(F)(F)F)c3ncccc23)C[C@H](C(=O)NCC2CCCCN2C)O1` (stereo partly drawn) [Example 4, (2R,6R)-6-methyl-N-[(1-methyl-2-piperidyl)methyl]-4-[8-(trifluoromethyl)-5-quinolyl]morpholine-2-carboxamide] as the compound, how does the IC50 (human TLR8) read?
Answer: 10 nM

Question: What about the inhibition at 5 min, 10 µM (CYP3A4) of the same compound?
Answer: -14%

Question: `C[C@@H]1CN(c2ccc(C(F)(F)F)c3ncccc23)C[C@H](C(=O)NC2CCN(C)CC2)O1` [Example 5, (2R,6R)-6-methyl-N-(1-methyl-4-piperidyl)-4-[8-(trifluoromethyl)-5-quinolyl]morpholine-2-carboxamide] was tested. Which IC50 (human TLR8) did it give?
Answer: < 3 nM

Question: And the inhibition at 5 min, 10 µM (CYP3A4)?
Answer: -13%

Question: For `C[C@@H]1CN(c2ccc(C(F)(F)F)c3ncccc23)C[C@H](C(=O)NCC(C)(C)N)O1` [Example 6, (2R,6R)-N-(2-amino-2-methyl-propyl)-6-methyl-4-[8-(trifluoromethyl)-5-quinolyl]morpholine-2-carboxamide], which IC50 (human TLR8) is on record?
Answer: 26 nM

Question: And the inhibition at 5 min, 10 µM (CYP3A4)?
Answer: -10%

Question: How did the IC50 (human TLR8) turn out when `C[C@@H]1CN(c2ccc(C(F)(F)F)c3ncccc23)C[C@H](C(=O)NC2CCCNCC2)O1` (stereo partly drawn) [Example 8, (2R,6R)-N-(azepan-4-yl)-6-methyl-4-[8-(trifluoromethyl)-5-quinolyl]morpholine-2-carboxamide] was run?
Answer: < 3 nM

Question: And the inhibition at 5 min, 10 µM (CYP3A4)?
Answer: -34%

Question: What does the source list for `C[C@@H]1CN(c2ccc(C(F)(F)F)c3ncccc23)C[C@H](C(=O)NC2CN(C)CC23CC3)O1` (stereo partly drawn) [Example 9, (2R,6R)-6-methyl-N-(5-methyl-5-azaspiro[2.4]heptan-7-yl)-4-[8-(trifluoromethyl)-5-quinolyl]morpholine-2-carboxamide]?
Answer: IC50 (human TLR8): < 3 nM; inhibition at 5 min, 10 µM (CYP3A4): -18%

Question: What does the source list for `C[C@@H]1CN(c2ccc(C(F)(F)F)c3ncccc23)C[C@H](C(=O)N2CCC(N)C2)O1` (stereo partly drawn) [Example 10, (3-aminopyrrolidin-1-yl)-[(2R,6R)-6-methyl-4-[8-(trifluoromethyl)-5-quinolyl]morpholin-2-yl]methanone]?
Answer: IC50 (human TLR8): 29 nM; inhibition at 5 min, 10 µM (CYP3A4): 10%

Question: Which results are given for `C[C@@H]1CN(c2ccc(C(F)(F)F)c3ncccc23)C[C@H](C(=O)NCC2COCCN2C)O1` (stereo partly drawn) [Example 11, (2R,6R)-6-methyl-N-[(4-methylmorpholin-3-yl)methyl]-4-[8-(trifluoromethyl)-5-quinolyl]morpholine-2-carboxamide]?
Answer: IC50 (human TLR8): 62 nM; inhibition at 5 min, 10 µM (CYP3A4): -28%

Question: For `C[C@@H]1CN(c2ccc(C(F)(F)F)c3ncccc23)C[C@H](C(=O)NCCN2CCOCC2)O1` [Example 13, (2R,6R)-6-methyl-N-(2-morpholinoethyl)-4-[8-(trifluoromethyl)-5-quinolyl]morpholine-2-carboxamide], which IC50 (human TLR8) is on record?
Answer: 52 nM

Question: What about the inhibition at 5 min, 10 µM (CYP3A4) of the same compound?
Answer: -22%

Question: How did the IC50 (human TLR8) turn out when `C[C@@H]1CN(c2ccc(C(F)(F)F)c3ncccc23)C[C@H](C(=O)NC2CNCCOC2)O1` (stereo partly drawn) [Example 14, (2R,6R)-6-methyl-N-(1,4-oxazepan-6-yl)-4-[8-(trifluoromethyl)-5-quinolyl]morpholine-2-carboxamide] was run?
Answer: 7 nM

Question: And the inhibition at 5 min, 10 µM (CYP3A4)?
Answer: -24%

Question: Which IC50 (human TLR8) does the source give for `Cc1ccc(N2C[C@@H](C)C[C@@H](N)C2)c2cccnc12` [Example 15, (3R,5S)-5-methyl-1-(8-methyl-5-quinolyl)piperidin-3-amine] here?
Answer: 15 nM

Question: What about the inhibition at 5 min, 10 µM (CYP3A4) of the same compound?
Answer: -18%

Question: `Cc1ccc(N2C[C@@H](C)O[C@@H](C(=O)NC3CCN(C)CC3)C2)c2cccnc12` [Example 16, (2R,6R)-6-methyl-N-(1-methyl-4-piperidyl)-4-(8-methyl-5-quinolyl)morpholine-2-carboxamide] was tested. Which IC50 (human TLR8) did it give?
Answer: 8 nM

Question: What about the inhibition at 5 min, 10 µM (CYP3A4) of the same compound?
Answer: 2%

Question: Which results are given for `Cc1ccc(N2C[C@@H](C)O[C@@H](C(=O)NCC3CN(C)CCO3)C2)c2cccnc12` (stereo partly drawn) [Example 17, (2R,6R)-6-methyl-N-[(4-methylmorpholin-2-yl)methyl]-4-(8-methyl-5-quinolyl)morpholine-2-carboxamide]?
Answer: IC50 (human TLR8): 25 nM; inhibition at 5 min, 10 µM (CYP3A4): -5%

Question: Which results are given for `C[C@@H]1CN(c2ccc([N+](=O)[O-])c3ncccc23)C[C@H](C(=O)NCC2CN(C)CCO2)O1` (stereo partly drawn) [Example 18, (2R,6R)-6-methyl-N-[(4-methylmorpholin-2-yl)methyl]-4-(8-nitro-5-quinolyl)morpholine-2-carboxamide]?
Answer: IC50 (human TLR8): < 3 nM; inhibition at 5 min, 10 µM (CYP3A4): 11%
